Source: the NIST ThermoML archive (doi:10.1016/j.jct.2011.07.008)
Numbers after ± are expanded uncertainties.

Experiments:
[1] = mn = molality of the nth substance listed, in mol/kg; details: 101 kPa, Liquid; for viscosity: Capillary tube (Ostwald / Ubbelohde) method
[2] = 298.15 K; 101.33 kPa; Liquid; Pycnometric method
[3] = refractive index (Na D-line) (dimensionless); details: 298.15 K; 101.33 kPa; Liquid; Standard Abbe refractometry

Work on `CCOCCO` [2-ethoxyethan-1-ol] + O yielded a viscosity ([1]; 275.15 K, m1 = 0.0102) of 1.005 ± 0.041 mPa·s, a viscosity ([1]; 275.15 K, m1 = 0.0202) of 1.01 ± 0.041 mPa·s and a viscosity ([1]; 275.15 K, m1 = 0.0294) of 1.015 ± 0.041 mPa·s. The viscosity ([1]; 275.15 K, m1 = 0.0459) was 1.025 ± 0.041 mPa·s, the viscosity ([1]; 275.15 K, m1 = 0.0502) was 1.028 ± 0.042 mPa·s and the viscosity ([1]; 275.15 K, m1 = 0.0602) was 1.035 ± 0.042 mPa·s. It also gave a viscosity ([1]; 275.15 K, m1 = 0.071) of 1.042 ± 0.042 mPa·s, a viscosity ([1]; 275.15 K, m1 = 0.0818) of 1.05 ± 0.042 mPa·s and a viscosity ([1]; 275.15 K, m1 = 0.0902) of 1.057 ± 0.043 mPa·s. The viscosity ([1]; 275.15 K, m1 = 0.1008) was 1.065 ± 0.043 mPa·s, the mass density ([1]; 275.15 K, Pycnometric method, m1 = 0.0102) was 999.95 ± 0.33 kg/m3 and the mass density ([1]; 275.15 K, Pycnometric method, m1 = 0.0202) was 999.95 ± 0.33 kg/m3. It also gave a mass density ([1]; 275.15 K, Pycnometric method, m1 = 0.0294) of 999.95 ± 0.33 kg/m3, a mass density ([1]; 275.15 K, Pycnometric method, m1 = 0.0459) of 999.96 ± 0.33 kg/m3 and a mass density ([1]; 275.15 K, Pycnometric method, m1 = 0.0502) of 999.96 ± 0.33 kg/m3. The mass density ([1]; 275.15 K, Pycnometric method, m1 = 0.0602) was 999.97 ± 0.33 kg/m3, the mass density ([1]; 275.15 K, Pycnometric method, m1 = 0.071) was 1000 ± 0.33 kg/m3 and the mass density ([1]; 275.15 K, Pycnometric method, m1 = 0.0818) was 1000 ± 0.33 kg/m3. It also gave a mass density ([1]; 275.15 K, Pycnometric method, m1 = 0.0902) of 1000.01 ± 0.33 kg/m3, a mass density ([1]; 275.15 K, Pycnometric method, m1 = 0.1008) of 1000.03 ± 0.33 kg/m3 and a mass density ([1]; 283.15 K, Buoyancy - hydrostatic balance with magnetic suspension - one sinker, m1 = 0.0067) of 999.7 ± 0.23 kg/m3. It also gave a mass density ([1]; 283.15 K, Buoyancy - hydrostatic balance with magnetic suspension - one sinker, m1 = 0.0191) of 999.71 ± 0.23 kg/m3, a mass density ([1]; 283.15 K, Buoyancy - hydrostatic balance with magnetic suspension - one sinker, m1 = 0.0303) of 999.71 ± 0.23 kg/m3 and a mass density ([1]; 283.15 K, Buoyancy - hydrostatic balance with magnetic suspension - one sinker, m1 = 0.0392) of 999.74 ± 0.23 kg/m3. For the same compound, the mass density ([1]; 283.15 K, Buoyancy - hydrostatic balance with magnetic suspension - one sinker, m1 = 0.0492) was 999.72 ± 0.23 kg/m3, the mass density ([1]; 283.15 K, Buoyancy - hydrostatic balance with magnetic suspension - one sinker, m1 = 0.0598) was 999.72 ± 0.23 kg/m3 and the mass density ([1]; 283.15 K, Buoyancy - hydrostatic balance with magnetic suspension - one sinker, m1 = 0.0682) was 999.73 ± 0.23 kg/m3. For the same compound, the mass density ([1]; 283.15 K, Buoyancy - hydrostatic balance with magnetic suspension - one sinker, m1 = 0.0799) was 999.73 ± 0.23 kg/m3, the mass density ([1]; 283.15 K, Buoyancy - hydrostatic balance with magnetic suspension - one sinker, m1 = 0.0885) was 999.73 ± 0.23 kg/m3 and the mass density ([1]; 283.15 K, Buoyancy - hydrostatic balance with magnetic suspension - one sinker, m1 = 0.0906) was 999.73 ± 0.23 kg/m3. It also gave a mass density ([1]; 283.15 K, Buoyancy - hydrostatic balance with magnetic suspension - one sinker, m1 = 0.0996) of 999.76 ± 0.23 kg/m3, a mass density ([1]; 283.15 K, Buoyancy - hydrostatic balance with magnetic suspension - one sinker, m1 = 0.1004) of 999.78 ± 0.23 kg/m3 and a viscosity ([1]; 283.15 K, m1 = 0.0067) of 1.002 ± 0.041 mPa·s. For the same compound, the viscosity ([1]; 283.15 K, m1 = 0.0191) was 1.006 ± 0.041 mPa·s, the viscosity ([1]; 283.15 K, m1 = 0.0303) was 1.01 ± 0.041 mPa·s and the viscosity ([1]; 283.15 K, m1 = 0.0392) was 1.014 ± 0.041 mPa·s. It also gave a viscosity ([1]; 283.15 K, m1 = 0.0492) of 1.018 ± 0.041 mPa·s, a viscosity ([1]; 283.15 K, m1 = 0.0598) of 1.022 ± 0.041 mPa·s and a viscosity ([1]; 283.15 K, m1 = 0.0682) of 1.026 ± 0.041 mPa·s. The viscosity ([1]; 283.15 K, m1 = 0.0799) was 1.032 ± 0.042 mPa·s, the viscosity ([1]; 283.15 K, m1 = 0.0885) was 1.036 ± 0.042 mPa·s and the viscosity ([1]; 283.15 K, m1 = 0.0906) was 1.037 ± 0.042 mPa·s. The viscosity ([1]; 283.15 K, m1 = 0.0996) was 1.042 ± 0.042 mPa·s and the viscosity ([1]; 283.15 K, m1 = 0.1004) was 1.043 ± 0.042 mPa·s.

For `CCOCCO` [2-ethoxyethan-1-ol], the mass density [2] was 925.05 ± 1.4 kg/m3 and the refractive index [3] was 1.4057 ± 0.0008.

With `CCOCCOCCO` [3,6-dioxa-1-octanol] + O the viscosity ([1]; 275.15 K, m1 = 0.0108) was 1.008 ± 0.041 mPa·s, the viscosity ([1]; 275.15 K, m1 = 0.0203) was 1.015 ± 0.041 mPa·s and the viscosity ([1]; 275.15 K, m1 = 0.0306) was 1.022 ± 0.041 mPa·s. For the same compound, the viscosity ([1]; 275.15 K, m1 = 0.0409) was 1.029 ± 0.042 mPa·s, the viscosity ([1]; 275.15 K, m1 = 0.0504) was 1.035 ± 0.042 mPa·s and the viscosity ([1]; 275.15 K, m1 = 0.0625) was 1.043 ± 0.042 mPa·s. It also gave a viscosity ([1]; 275.15 K, m1 = 0.0707) of 1.048 ± 0.042 mPa·s, a viscosity ([1]; 275.15 K, m1 = 0.0809) of 1.053 ± 0.043 mPa·s and a viscosity ([1]; 275.15 K, m1 = 0.0904) of 1.058 ± 0.043 mPa·s. The viscosity ([1]; 275.15 K, m1 = 0.1025) was 1.047 ± 0.042 mPa·s, the mass density ([1]; 275.15 K, Pycnometric method, m1 = 0.0108) was 1000.05 ± 0.33 kg/m3 and the mass density ([1]; 275.15 K, Pycnometric method, m1 = 0.0203) was 1000.15 ± 0.33 kg/m3. The mass density ([1]; 275.15 K, Pycnometric method, m1 = 0.0306) was 1000.23 ± 0.33 kg/m3, the mass density ([1]; 275.15 K, Pycnometric method, m1 = 0.0409) was 1000.34 ± 0.33 kg/m3 and the mass density ([1]; 275.15 K, Pycnometric method, m1 = 0.0504) was 1000.42 ± 0.33 kg/m3. For the same compound, the mass density ([1]; 275.15 K, Pycnometric method, m1 = 0.0625) was 1000.52 ± 0.33 kg/m3, the mass density ([1]; 275.15 K, Pycnometric method, m1 = 0.0707) was 1000.62 ± 0.33 kg/m3 and the mass density ([1]; 275.15 K, Pycnometric method, m1 = 0.0809) was 1000.69 ± 0.33 kg/m3. It also gave a mass density ([1]; 275.15 K, Pycnometric method, m1 = 0.0904) of 1000.79 ± 0.33 kg/m3, a mass density ([1]; 275.15 K, Pycnometric method, m1 = 0.1025) of 1000.86 ± 0.33 kg/m3 and a mass density ([1]; 283.15 K, Buoyancy - hydrostatic balance with magnetic suspension - one sinker, m1 = 0.0092) of 999.77 ± 0.23 kg/m3. It also gave a mass density ([1]; 283.15 K, Buoyancy - hydrostatic balance with magnetic suspension - one sinker, m1 = 0.019) of 999.8 ± 0.23 kg/m3, a mass density ([1]; 283.15 K, Buoyancy - hydrostatic balance with magnetic suspension - one sinker, m1 = 0.0291) of 999.96 ± 0.23 kg/m3 and a mass density ([1]; 283.15 K, Buoyancy - hydrostatic balance with magnetic suspension - one sinker, m1 = 0.0416) of 1000.08 ± 0.23 kg/m3. For the same compound, the mass density ([1]; 283.15 K, Buoyancy - hydrostatic balance with magnetic suspension - one sinker, m1 = 0.0482) was 1000.09 ± 0.23 kg/m3, the mass density ([1]; 283.15 K, Buoyancy - hydrostatic balance with magnetic suspension - one sinker, m1 = 0.062) was 1000.22 ± 0.23 kg/m3 and the mass density ([1]; 283.15 K, Buoyancy - hydrostatic balance with magnetic suspension - one sinker, m1 = 0.0687) was 1000.23 ± 0.23 kg/m3. The mass density ([1]; 283.15 K, Buoyancy - hydrostatic balance with magnetic suspension - one sinker, m1 = 0.0796) was 1000.34 ± 0.23 kg/m3, the mass density ([1]; 283.15 K, Buoyancy - hydrostatic balance with magnetic suspension - one sinker, m1 = 0.0904) was 1000.41 ± 0.23 kg/m3 and the mass density ([1]; 283.15 K, Buoyancy - hydrostatic balance with magnetic suspension - one sinker, m1 = 0.091) was 1000.39 ± 0.23 kg/m3. It also gave a mass density ([1]; 283.15 K, Buoyancy - hydrostatic balance with magnetic suspension - one sinker, m1 = 0.0998) of 1000.48 ± 0.23 kg/m3, a mass density ([1]; 283.15 K, Buoyancy - hydrostatic balance with magnetic suspension - one sinker, m1 = 0.1019) of 1000.46 ± 0.23 kg/m3 and a viscosity ([1]; 283.15 K, m1 = 0.0092) of 1.004 ± 0.041 mPa·s. For the same compound, the viscosity ([1]; 283.15 K, m1 = 0.019) was 1.008 ± 0.041 mPa·s, the viscosity ([1]; 283.15 K, m1 = 0.0291) was 1.013 ± 0.041 mPa·s and the viscosity ([1]; 283.15 K, m1 = 0.0416) was 1.019 ± 0.041 mPa·s. For the same compound, the viscosity ([1]; 283.15 K, m1 = 0.0482) was 1.023 ± 0.041 mPa·s, the viscosity ([1]; 283.15 K, m1 = 0.062) was 1.03 ± 0.042 mPa·s and the viscosity ([1]; 283.15 K, m1 = 0.0687) was 1.034 ± 0.042 mPa·s. The viscosity ([1]; 283.15 K, m1 = 0.0796) was 1.041 ± 0.042 mPa·s, the viscosity ([1]; 283.15 K, m1 = 0.0904) was 1.047 ± 0.042 mPa·s and the viscosity ([1]; 283.15 K, m1 = 0.091) was 1.047 ± 0.042 mPa·s. It also gave a viscosity ([1]; 283.15 K, m1 = 0.0998) of 1.053 ± 0.043 mPa·s and a viscosity ([1]; 283.15 K, m1 = 0.1019) of 1.054 ± 0.043 mPa·s.

`O` [water] + CCOCCO showed a viscosity ([1]; 275.15 K, m2 = 0) of 1.674 ± 0.069 mPa·s, a mass density ([1]; 275.15 K, Pycnometric method, m2 = 0) of 999.94 ± 0.33 kg/m3 and a mass density ([1]; 283.15 K, Buoyancy - hydrostatic balance with magnetic suspension - one sinker, m2 = 0) of 999.7 ± 0.23 kg/m3. The viscosity ([1]; 283.15 K, m2 = 0) was 1.31 ± 0.054 mPa·s.
